The test system of one experiment is rice. The experiment is described as follows: Test B pre-/postemergence herbicide test. In kind it is in vivo, Oryza sativa. The gist of the method:
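Visual rating, 0 (no effect) to 100 (complete control), versus untreated controls after 13–15 d in greenhouse. Pre- and postemergence applications (postemergence plants 2–18 cm, 1–4 leaves); flooded paddy arm at 2-leaf stage. Compounds in non-phytotoxic solvent plus surfactant.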

Another experiment has as its system cocklebur. Nature of the experiment: Test C pre-/postemergence herbicide test. The experiment is classed as in vivo, Xanthium strumarium. The procedure, abridged: (§1)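 Visual ratings on a 0–100 scale (100 = complete control) made versus untreated controls after 12 to 14 greenhouse days. Test chemicals, formulated in surfactant-containing non-phytotoxic solvent, applied preemergence to planted seeds or postemergence to 1- to 4-leaf plants (2 to 18 cm).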

The test system of a further experiment is corn. The experiment is described as follows: Test C pre-/postemergence herbicide test. In kind it is in vivo, Zea mays. The gist of the method:
as §1

The next experiment relates to johnsongrass. The experiment is described as follows: Test C pre-/postemergence herbicide test. In kind it is in vivo, Sorghum halepense. The gist of the method:
as §1

Another experiment concerns pigweed. The experiment is described as follows: Test C pre-/postemergence herbicide test. In kind it is in vivo, Amaranthus retroflexus. The gist of the method: as §1
The test system of a further experiment is velvetleaf. Nature of the experiment: Test C pre-/postemergence herbicide test. The experiment is classed as in vivo, Abutilon theophrasti. The gist of the method: as §1
A further experiment relates to barnyardgrass. Nature of the experiment: Test A pre-/postemergence herbicide test. In kind it is in vivo, Echinochloa crus-galli. The gist of the method: (§2)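 Visual injury scores on a 0–100 scale (100 = complete control) taken about ten days post-treatment in greenhouse against untreated controls; dash means no result. Treatments: preemergence soil spray and postemergence spray to runoff on one- to two-leaf plants 2 to 10 cm tall, surfactant-containing formulation.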

The next experiment deals with redroot pigweed. The experiment is described as follows: Test A pre-/postemergence herbicide test. The experiment is classed as in vivo, Amaranthus retroflexus. The gist of the method:
as §2

Where [1] appears, read: Preemergence, 500 g ai/ha, scale 0 to 100, 0 no effect, 100 complete control.
The mark [2] stands for this setting: 125 g ai/ha, 0 = no effect, 100 = complete control, preemergence.
Setting [3] is: 500 g ai/ha, visual rating, 0 = no effect, 100 = complete control, preemergence.
[4] abbreviates: Postemergence, 250 g ai/ha, scale 0 to 100, 0 no effect, 100 complete control.
The mark [5] stands for this setting: postemergence, 125 g ai/ha, scale 0 to 100.
Setting [6] is: postemergence, 62 g ai/ha, scale 0 to 100.
Setting [7] is: Postemergence, 500 g ai/ha, 0 to 100 scale, 0 no effect, 100 complete control.
Where [8] appears, read: Postemergence, 2000 g ai/ha, 0 to 100 scale, 0 no effect, 100 complete control.
[9] abbreviates: Preemergence, 2000 g ai/ha, visual rating, 0 to 100 scale (0 no effect, 100 complete control).
Setting [10] is: preemergence, 500 g ai/ha, visual injury, 0 to 100 scale (0 no effect, 100 complete control).
Where [11] appears, read: 62 g ai/ha, preemergence, scale 0 to 100.
[12] abbreviates: 125 g ai/ha, scale 0 (no effect) to 100 (complete control), visual, 12 to 14 days, preemergence.
Where [13] appears, read: 250 g ai/ha, scale 0-100, preemergence.
Setting [14] is: 500 g ai/ha, scale 0 to 100 (0 no effect, 100 complete control), visual, 12 to 14 days, preemergence.

Data on 7 compounds can be found in patent US20060069132A1, “Azolecarboxamide herbicides” (priority 2004, published 2006).

Regarding `CCn1nc(C(C)(C)C)cc1C(=O)Nc1cc(C(=O)N(C)C)ccn1` [Compound 156, 2-[[[3-(1,1-dimethylethyl)-1-ethyl-1H-pyrazol-5-yl]carbonyl]amino]-N,N-dimethyl-4-pyridinecarboxamide], in the experiment on rice (Oryza sativa, pre-emergence, 336 h, 500 g ai/ha, visual rating 0-100, 0 no effect, 100 complete control, read-out: Plant response rating, Rice), the plant injury at 500 g/ha is 100%. Besides, the plant injury at 125 g/ha with rice (Oryza sativa, pre-emergence, 336 h, preemergence, 125 g ai/ha, 0 to 100 scale, 0 is no effect, 100 is complete control, read-out: Plant response rating, Rice) was 90%. Moreover, the pest or weed control at 62 g/ha in the experiment on cocklebur (Xanthium strumarium, pre-emergence, 312 h, 62 g ai/ha, preemergence, scale 0 to 100, read-out: Plant response rating, Cocklebur) worked out at 63%; in the experiment on johnsongrass (Sorghum halepense, pre-emergence, 62 g ai/ha, preemergence, scale 0 to 100, read-out: Plant response rating, Johnsongrass), 80%; in the experiment with pigweed (Amaranthus retroflexus, pre-emergence, 62 g ai/ha, preemergence, scale 0 to 100, read-out: Plant response rating, Pigweed), 95%; in the experiment on velvetleaf (Abutilon theophrasti, pre-emergence, 62 g ai/ha, preemergence, scale 0 to 100, read-out: Plant response rating, Velvetleaf), 43%. Besides, the pest or weed control at 125 g/ha is 98% in the experiment with cocklebur (Xanthium strumarium, pre-emergence, 312 h, 125 g ai/ha, scale 0 (no effect) to 100 (complete control), visual, 12 to 14 days, read-out: Plant response rating, Cocklebur); 85% in the experiment with johnsongrass (Sorghum halepense, pre-emergence, 125 g ai/ha, scale 0 (no effect) to 100 (complete control), visual, 12 to 14 days, read-out: Plant response rating, Johnsongrass); 98% in the experiment with pigweed (Amaranthus retroflexus, pre-emergence, 125 g ai/ha, scale 0 (no effect) to 100 (complete control), visual, 12 to 14 days, read-out: Plant response rating, Pigweed); 63% with velvetleaf (Abutilon theophrasti, pre-emergence, 125 g ai/ha, scale 0 (no effect) to 100 (complete control), visual, 12 to 14 days, read-out: Plant response rating, Velvetleaf). For the same compound, the pest or weed control at 250 g/ha in the experiment with cocklebur (Xanthium strumarium, pre-emergence, 312 h, 250 g ai/ha, scale 0 to 100 (0 no effect, 100 complete control), visual, 12 to 14 days, read-out: Plant response rating, Cocklebur) was found to be 100%. For the same compound, the pest or weed control at 500 g/ha in the experiment on cocklebur (Xanthium strumarium, pre-emergence, 312 h, Preemergence, 500 g ai/ha, scale 0 to 100, 0 no effect, 100 complete control, read-out: Cocklebur plant response rating) was 100%. Besides, in the experiment on corn (setting [1]), the “Corn plant response rating” value amounted to 50. In the experiment with corn (Zea mays, pre-emergence, 312 h, 62 g ai/ha, preemergence, scale 0 to 100), this compound registered a Corn plant response rating (crop injury, 0 = no effect, 100 = complete kill) at 62 g/ha of 15%. Moreover, the Corn plant response rating (crop injury, 0 = no effect, 100 = complete kill) at 125 g/ha in the experiment with corn (Zea mays, pre-emergence, 312 h, 125 g ai/ha, scale 0 (no effect) to 100 (complete control), visual, 12 to 14 days) worked out at 38%. Moreover, in the experiment with corn (Zea mays, pre-emergence, 312 h, 250 g ai/ha, scale 0 to 100 (0 no effect, 100 complete control), visual, 12 to 14 days), the Corn plant response rating (crop injury, 0 = no effect, 100 = complete kill) at 250 g/ha turned out to be 40%. For the same compound, the “Johnsongrass plant response rating” value with johnsongrass (setting [1]) stood at 100. Moreover, in the experiment on pigweed (setting [1]), the “Pigweed plant response rating” value worked out at 100. Moreover, the “Velvetleaf plant response rating” value in the experiment with velvetleaf (setting [1]) was 100.
In the case of `CCOC(=O)c1cccc(NC(=O)c2cc(C3(C)CC3)nn2CC)c1` [Compound 295], the “Rice plant response rating (0 to 100 scale)” value (shortened to “Rice plant response rating”) in the experiment on rice (setting [2]) came out at 10. Further, in the experiment on rice (setting [3]), the “Plant response rating, Rice” value amounted to 20. The “Plant response rating, Cocklebur” value with cocklebur (setting [4]) was 10; in the experiment with cocklebur (setting [5]) it was 5; in the experiment with cocklebur (postemergence, 31 g ai/ha, scale 0 to 100) it was 5; with cocklebur (setting [6]) it was 5. Further, the “Plant response rating, Corn” value in the experiment on corn (setting [4]) stood at 15; in the experiment on corn (setting [5]) it was 10; in the experiment on corn (setting [6]), 5. In addition, the “Plant response rating, Johnsongrass” value in the experiment on johnsongrass (setting [4]), with johnsongrass (setting [5]) and with johnsongrass (setting [6]) was 5 throughout. Further, the “Plant response rating, Pigweed” value with pigweed (setting [4]) was 95; in the experiment with pigweed (setting [6]), 80. Also, the “Plant response rating, Velvetleaf” value is listed as 70 with velvetleaf (setting [4]), 65 in the experiment with velvetleaf (setting [5]) and 60 with velvetleaf (setting [6]).
Consider `CCNC(=O)c1ccc(F)c(NC(=O)c2cc(C(C)(C)C)nn2CC)n1` [Compound 278], for which the “Barnyardgrass plant response rating” value in the experiment with barnyardgrass (setting [7]) was 30; with barnyardgrass (setting [9]), 80; in the experiment with barnyardgrass (setting [10]) it was 50. Besides, the “Plant response rating, Barnyardgrass” value in the experiment with barnyardgrass (setting [8]) turned out to be 60. Also, the “Pigweed plant response rating” value is 60 with redroot pigweed (setting [7]), 95 in the experiment on redroot pigweed (setting [9]) and 85 in the experiment on redroot pigweed (setting [10]). Besides, the “Plant response rating, Pigweed” value in the experiment on redroot pigweed (setting [8]) is 70. For the same compound, the “Rice plant response rating” value in the experiment on rice (setting [2]) was 30. For the same compound, the “Plant response rating, Rice” value in the experiment with rice (setting [3]) is on record as 80.
For the compound `C#CCNC(=O)c1cc(NC(=O)c2cc(C(C)(C)C)nn2CC)ccn1` [Compound 283], the “Barnyardgrass plant response rating” value with barnyardgrass (setting [7]) was 10; in the experiment on barnyardgrass (setting [9]), 30; in the experiment with barnyardgrass (setting [10]) it was 0. For the same compound, in the experiment on barnyardgrass (setting [8]), the “Plant response rating, Barnyardgrass” value was found to be 35. For the same compound, the “Pigweed plant response rating” value in the experiment on redroot pigweed (setting [7]) is 80; in the experiment on redroot pigweed (setting [9]) it was 90; in the experiment on redroot pigweed (setting [10]), 60. The “Plant response rating, Pigweed” value in the experiment on redroot pigweed (setting [8]) stood at 100. Further, the “Rice plant response rating” value in the experiment on rice (setting [2]) is 0. In the experiment with rice (setting [3]), the “Plant response rating, Rice” value came to 0.
For `C#CCNC(=O)c1cccc(NC(=O)c2sc(C(C)(C)C)nc2CC)c1` [Compound 319], the “Barnyardgrass plant response rating” value in the experiment on barnyardgrass (setting [7]) was 10; in the experiment with barnyardgrass (setting [9]), 80; in the experiment with barnyardgrass (setting [10]), 55. For the same compound, the “Plant response rating, Barnyardgrass” value in the experiment with barnyardgrass (setting [8]) came to 60. Moreover, the “Pigweed plant response rating” value in the experiment with redroot pigweed (setting [7]) is given as 40; in the experiment on redroot pigweed (setting [9]), 100; in the experiment on redroot pigweed (setting [10]) it was 100. In the experiment with redroot pigweed (setting [8]), the “Plant response rating, Pigweed” value is 40. In addition, the “Plant response rating (0 to 100 scale), Rice” value in the experiment on rice (125 g ai/ha, 0 is no effect, 100 is complete control, preemergence) turned out to be 30. For the same compound, the “Plant response rating, Rice” value in the experiment with rice (setting [3]) turned out to be 70.
For the compound `CCN1N=C(C(C)(C)C)CC1C(=O)Nc1cc(C(=O)N2CC=CC2)ccc1F` (racemic) [Compound 310], the “Rice plant response rating” value in the experiment on rice (setting [2]) was found to be 40. Also, the “Plant response rating, Rice” value with rice (setting [3]) is 80. Besides, the “Plant response rating, Cocklebur” value worked out at 0 in the experiment on cocklebur (setting [11]), 0 with cocklebur (setting [12]) and 5 with cocklebur (setting [13]). Further, in the experiment on cocklebur (setting [1]), the “Cocklebur plant response rating” value is on record as 30. Moreover, the “Plant response rating, Corn” value in the experiment on corn (setting [12]) is on record as 0; in the experiment on corn (setting [13]), 5; in the experiment with corn (setting [14]), 10. Also, the “Plant response rating, Johnsongrass” value is 0 with johnsongrass (setting [11]), 10 in the experiment on johnsongrass (setting [12]), 20 with johnsongrass (setting [13]) and 80 in the experiment with johnsongrass (setting [14]). Also, the “Plant response rating, Pigweed” value with pigweed (setting [11]), with pigweed (setting [12]), in the experiment with pigweed (setting [13]) and in the experiment with pigweed (setting [14]) was 100 throughout. Further, the “Plant response rating, Velvetleaf” value in the experiment on velvetleaf (setting [11]) was determined as 0; in the experiment with velvetleaf (setting [13]), 10; in the experiment with velvetleaf (setting [14]), 100.
With `CCn1nc(C(C)(C)C)cc1C(=O)Nc1cccc(OCCCF)c1` [Compound 138], the “Barnyardgrass plant response rating” value in the experiment with barnyardgrass (setting [7]) stood at 15; with barnyardgrass (Preemergence, 500 g ai/ha, visual rating, 0 to 100 scale (0 no effect, 100 complete control)), 30; in the experiment on barnyardgrass (setting [9]), 80. Besides, the “Plant response rating, Barnyardgrass” value in the experiment with barnyardgrass (setting [8]) is on record as 30. Further, the “Pigweed plant response rating” value is recorded as 60 in the experiment on redroot pigweed (setting [7]), 95 in the experiment with redroot pigweed (setting [9]) and 80 in the experiment with redroot pigweed (setting [10]). For the same compound, the “Plant response rating, Pigweed” value with redroot pigweed (setting [8]) was determined as 100. Besides, in the experiment on rice (500 g ai/ha, visual rating 0-100, 0 no effect, 100 complete control, preemergence), the “Plant response rating, Rice” value is 40.
